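Dose response: 5 concentrations. Exposure: 48 h. Format: 96-well plates. Endpoint: linear interpolation; highest concentration if not reached. Abbreviation: GI50, concentration required for 50% inhibition of growth. TGI is the concentration that stops growth completely.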
Columns and labels:
Test in all cases: inhibition of tumour cell growth, NCI panel, 48 h
786-0 renal = tested on: 786-0 renal
A498 renal = tested on: A498 renal
A549 NSCLC = tested on: A549 NSCLC
ACHN renal = tested on: ACHN renal
BT-549 breast = tested on: BT-549 breast
CAKI-1 renal = tested on: CAKI-1 renal
CCRF-CEM leukemia = tested on: CCRF-CEM leukemia
COLO 205 colon = tested on: COLO 205 colon
DU-145 prostate = tested on: DU-145 prostate
HCC-2998 colon = tested on: HCC-2998 colon
HCT-116 colon = tested on: HCT-116 colon
HCT-15 colon = tested on: HCT-15 colon
HL-60(TB) leukemia = tested on: HL-60(TB) leukemia
HOP-62 NSCLC = tested on: HOP-62 NSCLC
HOP-92 NSCLC = tested on: HOP-92 NSCLC
HS 578T breast = tested on: HS 578T breast
HT29 colon = tested on: HT29 colon
IGROV1 ovarian = tested on: IGROV1 ovarian
K-562 leukemia = tested on: K-562 leukemia
KM12 colon = tested on: KM12 colon
LOX IMVI melanoma = tested on: LOX IMVI melanoma
M14 melanoma = tested on: M14 melanoma
MALME-3M melanoma = tested on: MALME-3M melanoma
MCF7 breast = tested on: MCF7 breast
MDA-MB-231 breast = tested on: MDA-MB-231 breast
MDA-MB-435 = tested on: MDA-MB-435
MOLT-4 leukemia = tested on: MOLT-4 leukemia
NCI-H226 lung = tested on: NCI-H226 lung
NCI-H23 lung = tested on: NCI-H23 lung
NCI-H460 lung = tested on: NCI-H460 lung
NCI-H522 lung = tested on: NCI-H522 lung
NCI/ADR-RES ovarian = tested on: NCI/ADR-RES ovarian
OVCAR-3 ovarian = tested on: OVCAR-3 ovarian
OVCAR-4 ovarian = tested on: OVCAR-4 ovarian
OVCAR-5 ovarian = tested on: OVCAR-5 ovarian
OVCAR-8 ovarian = tested on: OVCAR-8 ovarian
PC-3 prostate = tested on: PC-3 prostate
RPMI-8226 leukemia = tested on: RPMI-8226 leukemia
RXF 393 renal = tested on: RXF 393 renal
SF-268 CNS = tested on: SF-268 CNS
SF-295 CNS = tested on: SF-295 CNS
SF-539 CNS = tested on: SF-539 CNS
SK-MEL-2 melanoma = tested on: SK-MEL-2 melanoma
SK-MEL-28 melanoma = tested on: SK-MEL-28 melanoma
SK-MEL-5 melanoma = tested on: SK-MEL-5 melanoma
SK-OV-3 ovarian = tested on: SK-OV-3 ovarian
SN12C renal = tested on: SN12C renal
SNB-19 CNS = tested on: SNB-19 CNS
SNB-75 CNS = tested on: SNB-75 CNS
SR leukemia = tested on: SR leukemia
SW-620 colon = tested on: SW-620 colon
T-47D breast = tested on: T-47D breast
TK-10 renal = tested on: TK-10 renal
U251 CNS = tested on: U251 CNS
UACC-257 melanoma = tested on: UACC-257 melanoma
UACC-62 melanoma = tested on: UACC-62 melanoma
UO-31 renal = tested on: UO-31 renal

## Cc1ccc(C(=O)c2sc3nc4c(cc3c2N)CCCC4)c(C)c1
786-0 renal
  GI50: 617 nM
  TGI: > 100000 nM
A498 renal
  GI50: 236 nM
  TGI: 11000 nM
A549 NSCLC
  GI50: 377 nM
  TGI: > 100000 nM
ACHN renal
  GI50: 872 nM
  TGI: > 100000 nM
BT-549 breast
  GI50: 1200 nM
  TGI: > 100000 nM
CAKI-1 renal
  GI50: 361 nM
  TGI: > 100000 nM
CCRF-CEM leukemia
  GI50: 311 nM
  TGI: > 100000 nM
COLO 205 colon
  GI50: 899 nM
  TGI: 5070 nM
DU-145 prostate
  GI50: 838 nM
  TGI: > 100000 nM
HCC-2998 colon
  GI50: 4720 nM
  TGI: > 100000 nM
HCT-116 colon
  GI50: 260 nM
  TGI: > 100000 nM
HCT-15 colon
  GI50: 159 nM
  TGI: > 100000 nM
HL-60(TB) leukemia
  GI50: 263 nM
  TGI: > 38800 nM
HOP-62 NSCLC
  GI50: 465 nM
  TGI: > 100000 nM
HOP-92 NSCLC
  GI50: 3360 nM
  TGI: 87600 nM
HS 578T breast
  GI50: 415 nM
  TGI: > 100000 nM
HT29 colon
  GI50: 443 nM
  TGI: > 35000 nM
IGROV1 ovarian
  GI50: 1230 nM
  TGI: > 100000 nM
K-562 leukemia
  GI50: 93.4 nM
  TGI: > 100000 nM
KM12 colon
  GI50: 251 nM
  TGI: > 100000 nM
LOX IMVI melanoma
  GI50: 502 nM
  TGI: > 100000 nM
M14 melanoma
  GI50: 190 nM
  TGI: > 100000 nM
MALME-3M melanoma
  GI50: 75.4 nM
  TGI: > 100000 nM
MCF7 breast
  GI50: 162 nM
  TGI: > 100000 nM
MDA-MB-231 breast
  GI50: 1080 nM
  TGI: > 100000 nM
MDA-MB-435
  GI50: 25.8 nM
  TGI: 86 nM
MOLT-4 leukemia
  GI50: 563 nM
  TGI: > 100000 nM
NCI-H226 lung
  GI50: 2670 nM
  TGI: > 100000 nM
NCI-H23 lung
  GI50: 776 nM
  TGI: > 100000 nM
NCI-H460 lung
  GI50: 348 nM
  TGI: > 100000 nM
NCI-H522 lung
  GI50: 126 nM
NCI/ADR-RES ovarian
  GI50: 239 nM
  TGI: > 100000 nM
OVCAR-3 ovarian
  GI50: 183 nM
  TGI: > 31900 nM
OVCAR-4 ovarian
  GI50: 1970 nM
  TGI: > 100000 nM
OVCAR-5 ovarian
  GI50: 2490 nM
  TGI: > 100000 nM
OVCAR-8 ovarian
  GI50: 807 nM
  TGI: > 100000 nM
PC-3 prostate
  GI50: 433 nM
  TGI: > 100000 nM
RPMI-8226 leukemia
  GI50: 406 nM
  TGI: 6970 nM
RXF 393 renal
  GI50: 328 nM
  TGI: 2310 nM
SF-268 CNS
  GI50: 787 nM
  TGI: > 100000 nM
SF-295 CNS
  GI50: 291 nM
  TGI: 98900 nM
SF-539 CNS
  GI50: 250 nM
  TGI: 956 nM
SK-MEL-2 melanoma
  GI50: 429 nM
  TGI: > 71200 nM
SK-MEL-28 melanoma
  GI50: 2150 nM
  TGI: > 100000 nM
SK-MEL-5 melanoma
  GI50: 320 nM
  TGI: > 37900 nM
SK-OV-3 ovarian
  GI50: 515 nM
  TGI: > 100000 nM
SN12C renal
  GI50: 841 nM
  TGI: > 100000 nM
SNB-19 CNS
  GI50: 4680 nM
  TGI: > 100000 nM
SNB-75 CNS
  GI50: 247 nM
  TGI: 6160 nM
SR leukemia
  GI50: 124 nM
  TGI: > 73000 nM
SW-620 colon
  GI50: 265 nM
  TGI: > 100000 nM
T-47D breast
  GI50: 450 nM
  TGI: > 69800 nM
TK-10 renal
  GI50: 12800 nM
  TGI: > 100000 nM
U251 CNS
  GI50: 376 nM
  TGI: > 100000 nM
UACC-257 melanoma
  GI50: 539 nM
  TGI: > 100000 nM
UACC-62 melanoma
  GI50: 256 nM
  TGI: > 100000 nM
UO-31 renal
  GI50: 766 nM
  TGI: > 100000 nM

— PubChem BioAssay (NCI)
